Experimental data reported in US8338598B2, “Herbicidal pyrido[2,3-B]pyrazines and their use as herbicides” (Syngenta Limited, priority 2008, dated 2012).

What was measured:
Format in all cases: in vivo
[1] = system: Amaranthus retroflexus; assay: Example B2 herbicidal action, pre-emergence, pots in glasshouse; conditions: evaluated after 13 days, 10=total damage to plant, 0=no damage to plant
Description: (§1) Seeds of a variety of test species were sown in standard soil in pots. After cultivation for one day (pre-emergence) or after 8 days cultivation (post-emergence) under controlled conditions in a glasshouse (at 24/16° C., day/night; 14 hours light; 65% humidity), the plants were sprayed with an aqueous spray solution derived from the formulation of the technical active ingredient in acetone/water (50:50) solution containing 0.5% Tween 20 (polyoxyethelyene sorbitan monolaurate, CAS RN 9005-64-5). The test plants were then grown in a glasshouse under controlled conditions in a glasshouse (at 24/16° C., day/night; 14 hours light; 65% humidity) and watered twice daily. After 13 days, the test was evaluated (10=total damage to plant; 0=no damage to plant).

[2] = system: Setaria faberi; assay: as above; conditions: evaluated after 13 days, 10=total damage to plant, 0=no damage to plant
Description: as §1

[3] = system: Solanum nigrum; assay: as above; conditions: evaluated after 13 days, 10=total damage to plant, 0=no damage to plant
Description: as §1

[4] = system: Ipomea hederaceae; assay: as above; conditions: evaluated after 13 days, 10=total damage to plant, 0=no damage to plant
Description: as §1

[5] = system: Echinochloa crus-galli; assay: as above; conditions: evaluated after 13 days, 10=total damage to plant, 0=no damage to plant
Description: as §1

[6] = system: Amaranthus retroflexus; assay: Example B2 herbicidal action, post-emergence, pots in glasshouse; conditions: evaluated after 13 days, 10=total damage to plant, 0=no damage to plant
Description: as §1

[7] = system: Setaria faberi; assay: as above; conditions: evaluated after 13 days, 10=total damage to plant, 0=no damage to plant
Description: as §1

[8] = system: Solanum nigrum; assay: as above; conditions: evaluated after 13 days, 10=total damage to plant, 0=no damage to plant
Description: as §1

[9] = system: Ipomea hederaceae; assay: as above; conditions: evaluated after 13 days, 10=total damage to plant, 0=no damage to plant
Description: as §1

[10] = system: Echinochloa crus-galli; assay: as above; conditions: evaluated after 13 days, 10=total damage to plant, 0=no damage to plant
Description: as §1

[11] = system: test plants; assay: Example B1 herbicidal action, post-emergence, overall statement on the test plants; conditions: Example B1 protocol, 1000 g/ha, result in words
Description: Seeds of a variety of test species were sown in sterilised standard soil in seed trays each having 96 cells. After cultivation for 8 to 9 days cultivation (post-emergence) under controlled conditions in a climatic chamber (cultivation at 23/17° C., day/night; 13 hours light; 50-60% humidity), the plants were treated with an aqueous spray solution of 1000 mg/l of the active ingredient dissolved in 10% DMSO (dimethyl sulfoxide, CAS RN 67-68-5) as a solvent, equivalent to 1000 g/ha. The plants were grown in the climatic chamber after application at (24/19° C., day/night; 13 hours light; 50-60% humidity) and watered twice daily. After 9 days until the test was evaluated (10=total damage to plant, 0=no damage to plant)

Compound: CC(C)(C)C(=O)Oc1c(-c2cnc(Cl)cc2Cl)c(=O)n(CC(F)F)c2nccnc12 [Compound A20, 2,2-Dimethyl-propionic acid 7-(4,6-dichloro-pyrid-3-yl)-5-(2,2-difluoro-ethyl)-6-oxo-5,6-dihydro-pyrido[2,3-b]pyrazin-8-yl ester]
- AMARE, damage to plant ([1]; 250 g/ha): 1
- SETFA, damage to plant ([2]; 250 g/ha): 0
- SOLNI, damage to plant ([3]; 250 g/ha): 1
- IPOHE, damage to plant ([4]; 250 g/ha): 0
- ECHCG, damage to plant ([5]; 250 g/ha): 3
- AMARE, damage to plant ([6]; 250 g/ha): 10
- SETFA, damage to plant ([7]; 250 g/ha): 2
- SOLNI, damage to plant ([8]; 250 g/ha): 10
- IPOHE, damage to plant ([9]; 250 g/ha): 10
- ECHCG, damage to plant ([10]; 250 g/ha): 7

Compound: CC(C)C(=O)Oc1c(-c2nn(C)nc2C(F)(F)F)c(=O)n(CC(F)F)c2nccnc12 [Compound B29]
- AMARE, damage to plant ([1]; 1000 g/ha): 4
- SETFA, damage to plant ([2]; 1000 g/ha): 3
- SOLNI, damage to plant ([3]; 1000 g/ha): 2
- IPOHE, damage to plant ([4]; 1000 g/ha): 1
- ECHCG, damage to plant ([5]; 1000 g/ha): 1
- AMARE, damage to plant ([6]; 1000 g/ha): 8
- SETFA, damage to plant ([7]; 1000 g/ha): 7
- SOLNI, damage to plant ([8]; 1000 g/ha): 7
- IPOHE, damage to plant ([9]; 1000 g/ha): 7
- ECHCG, damage to plant ([10]; 1000 g/ha): 3

Compound: Cc1cc(-c2c(OC(=O)C(C)(C)C)c3nccnc3[nH]c2=O)on1 [Compound B17]
- damage to the test plants [11]: little or no damage

Compound: Oc1nc2nccnc2c(O)c1-c1ncc(Cl)cc1Cl [Compound A1, 7-(3,5-dichloro-pyrid-2-yl)-pyrido[2,3-b]pyrazine-6,8-diol]
- damage to the test plants [11]: little or no damage

Compound: O=c1c(-c2cc(Cl)ncc2Cl)c(O)c2nccnc2n1CC(F)F [Compound A21, 7-(2,5-Dichloro-pyrid-4-yl)-5-(2,2-difluoro-ethyl)-8-hydroxy-5H-pyrido[2,3-b]pyrazin-6-one]
- AMARE, damage to plant ([1]; 1000 g/ha): 2
- SETFA, damage to plant ([2]; 1000 g/ha): 2
- SOLNI, damage to plant ([3]; 1000 g/ha): 0
- IPOHE, damage to plant ([4]; 1000 g/ha): 0
- ECHCG, damage to plant ([5]; 1000 g/ha): 0
- AMARE, damage to plant ([6]; 1000 g/ha): 9
- SETFA, damage to plant ([7]; 1000 g/ha): 7
- SOLNI, damage to plant ([8]; 1000 g/ha): 8
- IPOHE, damage to plant ([9]; 1000 g/ha): 7
- ECHCG, damage to plant ([10]; 1000 g/ha): 7

Compound: CC(C)(C)C(=O)Oc1c(-c2c(Cl)ccnc2Cl)c(=O)[nH]c2nccnc12 [Compound A17, 2,2-Dimethyl-propionic acid 7-(2,4-dichloro-pyrid-3-yl)-6-oxo-5,6-dihydro-pyrido[2,3-b]pyrazin-8-yl ester]
- damage to the test plants [11]: little or no damage

Compound: Cc1cc(-c2c(OC(=O)C(C)C)c3nccnc3[nH]c2=O)[nH]n1 [Compound B18]
- damage to the test plants [11]: little or no damage

Compound: O=c1[nH]c2nccnc2c(O)c1-c1ncc(Cl)cc1F [Compound A28]
- damage to the test plants [11]: little or no damage

Compound: Cc1cc(-c2c(OC(=O)C(C)(C)C)c3nccnc3n(C)c2=O)n2nc(C)cc2n1 [Compound C3]
- damage to the test plants [11]: little or no damage

Compound: Cc1nc(Cl)sc1-c1c(O)c2nccnc2[nH]c1=O [Compound B1, 7-(2-chloro-4-methyl-thiazol-5-yl)-8-hydroxy-5H-pyrido[2,3-b]pyrazin-6-one]
- damage to the test plants [11]: little or no damage

Compound: CC(C)(C)C(=O)Oc1c(-c2ccc(Cl)nc2Cl)c(=O)[nH]c2nccnc12 [Compound A14, 2,2-dimethyl-propionic acid 7-(2,6-dichloro-pyrid-3-yl)-6-oxo-5,6-dihydro-pyrido[2,3-b]pyrazin-8-yl ester]
- AMARE, damage to plant ([1]; 1000 g/ha): 0
- SETFA, damage to plant ([2]; 1000 g/ha): 2
- SOLNI, damage to plant ([3]; 1000 g/ha): 0
- IPOHE, damage to plant ([4]; 1000 g/ha): 0
- ECHCG, damage to plant ([5]; 1000 g/ha): 4
- AMARE, damage to plant ([6]; 1000 g/ha): 5
- SETFA, damage to plant ([7]; 1000 g/ha): 7
- SOLNI, damage to plant ([8]; 1000 g/ha): 7
- IPOHE, damage to plant ([9]; 1000 g/ha): 4
- ECHCG, damage to plant ([10]; 1000 g/ha): 6

Compound: Cn1c(=O)c(-c2c(Cl)cncc2Cl)c(OC(=O)C(C)(C)C)c2nccnc21 [Compound A9, 2,2-Dimethyl-propionic acid 7-(3,5-dichloro-pyrid-4-yl)-5-methyl-6-oxo-5,6-dihydro-pyrido[2,3-b]pyrazin-8-yl ester]
- AMARE, damage to plant ([1]; 1000 g/ha): 0
- SETFA, damage to plant ([2]; 1000 g/ha): 0
- SOLNI, damage to plant ([3]; 1000 g/ha): 1
- IPOHE, damage to plant ([4]; 1000 g/ha): 5
- ECHCG, damage to plant ([5]; 1000 g/ha): 5
- AMARE, damage to plant ([6]; 1000 g/ha): 8
- SETFA, damage to plant ([7]; 1000 g/ha): 4
- SOLNI, damage to plant ([8]; 1000 g/ha): 8
- IPOHE, damage to plant ([9]; 1000 g/ha): 8
- ECHCG, damage to plant ([10]; 1000 g/ha): 7

Compound: Cc1cc(-c2c(O)c3nccnc3[nH]c2=O)[nH]n1 [Compound B14]
- damage to the test plants [11]: little or no damage

Compound: CC(C)C(=O)Oc1c(-c2ncc(Cl)cc2Cl)c(O)nc2nccnc12 [Compound A5, isobutyric acid 7-(3,5-dichloro-pyrid-2-yl)-6-oxo-5,6-dihydro-pyrido[2,3-b]pyrazin-8-yl ester]
- damage to the test plants [11]: little or no damage

Compound: Cc1cc(-c2c(OC(=O)C(C)(C)C)c3nccnc3[nH]c2=O)[nH]n1 [Compound B19]
- damage to the test plants [11]: little or no damage

Compound: CCn1c(=O)c(-c2cc(C)no2)c(OC(=O)C(C)(C)C)c2nccnc21 [Compound B20]
- damage to the test plants [11]: little or no damage

Compound: Cc1cc(-c2c(OC(=O)C(C)(C)C)c3nccnc3[nH]c2=O)n2nc(C)cc2n1 [Compound C2]
- damage to the test plants [11]: little or no damage

Compound: Cc1cc(-c2c(O)c3nccnc3[nH]c2=O)on1 [Compound B13]
- damage to the test plants [11]: little or no damage

Compound: CS(=O)(=O)Oc1c(-c2ncc(Cl)cc2Cl)c(=O)[nH]c2nccnc12 [Compound A4, methanesulfonic acid 7-(3,5-dichloro-pyrid-2-yl)-6-oxo-5,6-dihydro-pyrido[2,3-b]pyrazin-8-yl ester]
- damage to the test plants [11]: little or no damage

Compound: O=c1[nH]c2nccnc2c(O)c1-c1ccno1 [Compound B15]
- damage to the test plants [11]: little or no damage

Compound: CCOc1c(-c2cc(C)n(CC)n2)c(=O)n(CC)c2nccnc12 [Compound B22]
- damage to the test plants [11]: little or no damage

Compound: Cc1noc(-c2c(OC(=O)C(C)C)c3nccnc3n(C)c2=O)n1 [Compound B6, isobutyric acid 5-methyl-7-(3-methyl-1,2,4-oxadiazol-5-yl)-6-oxo-5,6-dihydro-pyrido[2,3-b]pyrazin-8-yl ester]
- damage to the test plants [11]: little or no damage

Compound: CCOC(=O)Oc1c(-c2ncc(Cl)cc2Cl)c(=O)[nH]c2nccnc12 [Compound A3, Carbonic acid 7-(3,5-dichloro-pyrid-2-yl)-6-oxo-5,6-dihydro-pyrido[2,3-b]pyrazin-8-yl ester ethyl ester]
- damage to the test plants [11]: little or no damage

Compound: O=c1[nH]c2nccnc2c(O)c1-c1ncc(C(F)(F)F)cc1Cl [Compound A29]
- damage to the test plants [11]: little or no damage

Compound: Cc1cc(-c2c(OC(=O)C(C)C)c3nccnc3[nH]c2=O)on1 [Compound B16]
- damage to the test plants [11]: little or no damage

Compound: Cc1cc(-c2c(O)c3nccnc3[nH]c2=O)n2nc(C)cc2n1 [Compound C1]
- damage to the test plants [11]: little or no damage

Compound: CC(C)C(=O)Oc1c(-c2cc(C(F)(F)F)no2)c(=O)[nH]c2nccnc12 [Compound B7, isobutyric acid 6-hydroxy-7-(3-trifluoromethyl-isoxazol-5-yl)-pyrido[2,3-b]pyrazin-8-yl ester]
- damage to the test plants [11]: little or no damage

Compound: CCn1c(=O)c(-c2cc(C)no2)c(OC(=O)C(C)C)c2nccnc21 [Compound B21]
- damage to the test plants [11]: little or no damage
